# Experimental data taken from paper PMC6670186, “Novel prodrugs of decitabine with greater metabolic stability and less toxicity” (Clinical Epigenetics, 2019).
# Entries after “also recorded” stand apart in the source; their conditions may differ. Like-named read-outs stand apart in the source and are kept apart here. Marks after values point to notes of the source that are not given here.
# Key:
# [1] = test system: HCT116 cells; test: Cell growth inhibition, HCT116; format: cell-based, Human
# Description: (§1) Cells were seeded at a density of 1 × 10^3 to 5 × 10^3 cells/well in a 96-well microplate or 1 × 10^4 to 5 × 10^4 cells/well in a six-well microplate on day 0 in triplicate, followed by treatment with drugs on day 1. The cell growth of HCT116 was estimated using IncuCyte (Essen BioScience, K.K.; Tokyo, Japan) for 94 h. The cell viability of SW480, HT29, and TMK1 was evaluated using a WST-8 [2-(2-methoxy-4-nitrophenyl)-3-(4-nitrophenyl)-5-(2, 4-disulfophenyl)-2H tetrazolium, monosodium salt] assay (Nacalai Tesque Inc., Kyoto, Japan). The numbers of cells of RKO, breast cancer cell lines, sarcoma cell lines, and neuroblastoma cell lines were counted using a microscope. The half-maximum inhibitory concentration (IC50) was obtained using the non-linear regression analysis of log (inhibitor) versus the normalized response with a variable slope using the GraphPad Prism software (GraphPad Software; La Jolla, CA).
# [2] = test system: DNMT1; test: DNMT1 western blot; format: cell-based, Human; details: HML58-3 cells
# Description: Cells were seeded at a density of 3 × 10^5 cells/10-cm dish and treated with appropriate drug(s) 24 h after the initial seeding. On day 5, the cells were lysed in RIPA buffer (20 mM Tris-HCl, pH 7.6; 150 mM NaCl; 1 mM EDTA; 0.1% SDS; and 1% NP-40) containing 3 mM dithiothreitol, proteinase inhibitor cocktail (Nacalai Tesque; Kyoto, Japan). Proteins were resolved by SDS-PAGE and transferred to an Immobilon-P […] membrane (Merck Millipore; Billerica, MA). After blocking, each membrane was incubated with rabbit anti-DNMT1 antibody (Abcam, 1:1000) or mouse anti-PARP antibody (BD, 1:1000). Following three cycles of 10-min washes with PBS supplemented with 0.5% Tween 20 (PBS-T), blots were incubated with secondary antibodies (rabbit IgG, 1:1000; mouse IgG, 1:10000) and rewashed. Chemiluminescence was detected using an ECL kit (Biological Industries).
# [3] = test system: HCT116 xenografts; test: Xenograft tumor formation assay in nude mice; format: in vivo; details: for tumor growth (tumor volume): intraperitoneal, twice per week; for DNA demethylation of two promoters in xenograft tumors: group 2 mice
# Description: (§2) HCT116 cells (5.0 × 10^6 cells per mouse) were subcutaneously injected into the inguinal region of 6-week-old female nude mice (n = 81) (BALB/c-nu/nu; CLEA Japan, Tokyo, Japan). Once tumors reached an average volume of 80 mm^3, mice bearing xenograft tumors were randomly divided into nine groups and treated intraperitoneally with vehicle (5% DMSO in 10% 2-hydroxypropyl-β-cyclodextrin solution), DAC, OR-2003, or OR-2100. The length and width of tumors were measured with standard calipers twice per week, and tumor volumes were calculated using the formula tumor volume = (length × width^2) × 0.5. Body weight was measured twice per week. […] The remaining mice were categorized as group 1 and continuously treated with drugs. At 29 days after the treatment, tumors, major organs, bone marrow, and blood serum were collected from six mice and blood count and biochemical tests were performed. The mice were maintained under standard conditions according to the institutional guidelines for animal care.
# [4] = test system: HML58-3; test: Expression microarray; format: cell-based, Human; details: 1 μM, 58,341 probes
# Description: Cy3-labeled cRNA was synthesized from 100 ng of total RNA using a Low Input Quick Amp Labeling Kit, One-Color (Agilent Technologies, Santa Clara, CA), and 600 ng of labeled cRNA was fragmented and hybridized to SurePrint G3 Human Gene Expression 8 x 60K v3 Microarray (Agilent Technologies). The hybridized microarray was scanned with an Agilent G2600D microarray scanner (Agilent Technologies). The scanned data were processed using Feature Extraction software (Agilent Technologies) and analyzed using GeneSpring software (Agilent Technologies). The 75th percentile of the signal intensity of all probes was normalized to be 0, and the genes with signal intensities of − 1 or more were regarded as showing positive expression.
# [5] = set-up: method as in Yoo C.B. et al. Cancer Research 2007; 67:6400–6408; details: ref Yoo C.B. et al. Cancer Research 2007, 67:6400–6408; cited from earlier work
# [6] = Pharmacokinetics in mice, intraperitoneal; format: in vivo; details: for AUC 0 → lim, Total: OR compound + metabolite DAC; for AUC 0 → lim, OR compound: dose equimolar to 0.20 mg/kg DAC
# Description: Six-week-old female ICR mice were intraperitoneally injected with 0.20 mg/kg of DAC, 0.29 mg/kg of OR-2003, 0.32 mg/kg of OR-2009, 0.30 mg/kg of OR-2100, and 0.31 mg/kg of OR-2102. The doses were decided so that equivalent amounts of molar concentration would be administered. The blood plasma was collected before and at 5, 15, 30, 45, 60, 90, and 120 min after the treatment. All experimental procedures were approved by the Committee of National Cancer Center.
# [7] = test system: TMK1 cells; test: Cell viability (WST-8), TMK1; format: cell-based
# Description: as §1
# [8] = Adverse effects in xenograft-bearing nude mice (body weight, blood count, biochemical tests); format: in vivo; details: for WBC count and liver function: doses equimolar to that of DAC
# Description: as §2
# [9] = test system: RKO cells; test: Cell growth inhibition, RKO; format: cell-based, Human
# Description: as §1
# [10] = test system: exogenous UCHL1 promoter and OSR2 promoter CpG island; test: Quantitative methylation-specific PCR of marker genes; format: cell-based, Human; details: qMSP; for DNA demethylation after pulse exposure: HML58-3 cells, 1.0 μM for 1 h; for DNA demethylation of exogenous UCHL1 promoter and OSR2 promoter CpG island: 0.0 to 10.0 μM
# Description: One microgram of EcoRV-digested genomic DNA was treated with sodium bisulfite as described previously. Bisulfite-treated DNA was resuspended in 40 μL of TE-buffer (10 mM Tris, pH 8.0; 1 mM EDTA, pH 8.0), and 1 μL was used for quantitative methylation-specific PCR (qMSP) using primers specific to methylated and unmethylated target loci, including MetLuc-UCHL1 promoter, OSR2 promoter, and UCHL1 promoter (Additional file 1: Table S1). As a fully unmethylated DNA control, genomic DNA from peripheral blood cells of a healthy person was amplified twice using a GenomiPhi DNA amplification kit (GE Healthcare Life Sciences; Little Chalfont, UK). As a fully methylated DNA control, the fully unmethylated DNA was methylated by SssI methylase (New England Biolabs; Beverly, MA).
# [11] = target: T1, human recombinant cytidine deaminase (Homo sapiens, UniProt P32320); test: Stability in the presence of cytidine deaminase; format: in vitro ADME
# T1 construct: His; purchased AT Gen Co. Ltd; Seoul, Korea
# Excerpt: The remaining of the starting derivatives were continuously assayed using HPLC analytical conditions as described above.
# [12] = Partition coefficient (log P), shake-flask method, n-octanol/PBS; format: physicochemical
# Description: The method employed HPLC with the following conditions: ZORBAX Bonus C18 column (4.6 × 150 mm, 3 μm); eluent: A = 10 mM HCO2NH4, B = acetonitrile, A:B = 50:50 (an isocratic mode for 5 min), and A:B = 99:1–20:80 (a gradient mode for 15 min); flow rate = 1.0 mL/min; oven temperature = 40 °C; detection = 240 nm.
# [13] = test system: HML58-3 cells; test: Genome-wide DNA methylation analysis (Infinium MethylationEPIC); format: cell-based, Human; details: 1 μM
# Description: Genome-wide DNA methylation analysis was performed using an Infinium Human MethylationEPIC BeadChip (Infinium EPIC; Illumina; Sam Diego, CA) as described previously. The BeadArray assessed the degree of methylation of 862,927 CpG probes as beta-values that ranged from 0 (unmethylated) to 1 (fully methylated). To reduce the data size and obtain data that were easy to handle, the CpG probes were grouped into 548,546 genomic blocks (GBs), which consisted of probes within 500 bp.
# [14] = Stability in phosphate-buffered saline; format: physicochemical; details: for Stability t1/2 in PBS: PBS 37 °C, 20** + x h, 20 h = t1/2 in PBS of DAC, x = OR compound; for t1/2 in PBS: PBS solution at 37°C
# Description: Five microliters of DAC derivatives (1.0 mg/100 μL of DMSO) was added to 200 μL of a stirred PBS solution at 37 °C. The mixture was stirred continuously for 1 day. The remaining of the starting derivatives was assayed using the HPLC analytical conditions as described above.
# [15] = test system: SFRP1 and UCHL1; test: RT-qPCR of tumor-suppressor genes after pulse exposure; format: cell-based, Human; details: HML58-3 cells, 1.0 μM for 1 h
# Description: Complementary DNA (cDNA) was synthesized from DNase-treated total RNA (1 μg) using oligo-(dT) 20 (Thermo Fisher Scientific; Waltham, MA) and SuperScript IV Reverse Transcriptase (Thermo Fisher Scientific). The number of cDNA molecules was quantified using qRT-PCR. The primer sequences and PCR conditions are shown in Additional file 1: Table S1. The copy number of each sample was calculated by comparing the amplification curve with those of standard DNA samples with known copy number. The number of target cDNA molecules was normalized to that of GAPDH cDNA molecules.
# [16] = test system: HML58-3 cells; test: Luciferase reporter assay for DNA demethylation; format: cell-based, Human; details: 0.1 and 1.0 μM for 1 h, analyzed on day 5
# Description: Cells were seeded at a density of 5 × 10^3 cells/well in a 96-well microplate on day 0 in triplicate, and 5 × 10^4 cells/well in a six-well plate on day 0. On day 1, the medium was replaced with a medium containing a specific concentration of a drug, which was freshly dissolved in DMSO and filtered through a 0.2-μ filter. On day 5, the supernatant from each well of the 96-well microplate was collected to measure luminescence. Luminescence was measured using the Ready-To-Glow^TM Secreted Luciferase Reporter Assay (Clontech; Mountain View, CA) and a multimode plate reader ARVO^TMMX (PerkinElmer Japan Co Ltd.; Kanagawa, Japan).
# [17] = plasma, DAC (metabolite for OR compounds), equimolar dose
# T1 sequence (P32320 whole entry): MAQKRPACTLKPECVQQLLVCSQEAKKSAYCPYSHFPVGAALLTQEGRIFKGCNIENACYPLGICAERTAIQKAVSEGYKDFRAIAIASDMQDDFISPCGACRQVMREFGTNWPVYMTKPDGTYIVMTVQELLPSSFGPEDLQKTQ
IC50 [1],Log PO/PBS [12],total AUC of OR compound and metabolite DAC compared with DAC [6],"AUC 0 → lim, DAC [6, 17]","AUC 0 → lim, Total ([6]; plasma)","AUC 0 → lim, OR compound ([6]; plasma)",half-life (time to release DAC) [14],Stability t1/2 in PBS [14],t1/2 in PBS [14],SMILES,tumor growth (tumor volume) [3],number of genes upregulated more than twofold and to − 1.0 log2 value [4],DNA demethylation of two promoters in xenograft tumors [3],IC50 [7],WBC count and liver function [8],IC50 [9],genome-wide DNA demethylation [13],DNA demethylation after pulse exposure [10],DNA demethylation of exogenous UCHL1 promoter and OSR2 promoter CpG island [10],further results
,,,,,,,,,"Nc1ncn([C@H]2C[C@H](O)[C@@H](CO)O2)c(=O)n1 [DAC, 2′-deoxy-5-azacytidine, reference compound]",suppressed the xenograft growth,2011,,,,,,,,"IC50 ([1]; Homo sapiens, HCT-116): 850 nM; DNMT1 protein level [2]: depleted at 3 and 10 μM; Stability t1/2 in PBS [5]: 20 h; AUC ([6]; female, ICR, mouse, ip, 0.2 mg/kg, plasma, DAC (metabolite for OR compounds), equimolar dose, read-out: AUC 0 → lim, DAC): 0.378 µM·h; IC50 ([7]; Homo sapiens, TMK-1): 5830 nM; body weight ([8]; 7.50 and 3.75 mg/kg, initial experiment): severe body weight loss; WBC count and liver function (AST, ALT) ([8]; even at a lower dose (0.625 and 1.250 mg/kg)): affected; IC50 ([9]; Homo sapiens): 0.2 nM; dose with strongest effect of DNA demethylation [10]: 1.0 µM; Enzymatic stability ([11]; cytidine deaminase, after 0.5 h): completely degraded; also recorded: Complete degradation after 0.5 h"
910 nM,1.64,larger AUCs than that of DAC,0.338 µM·h,0.643 µM·h,0.305 µM·h,1 h,20** + 1 h,1.0 h,CCC[Si](C)(C)OC[C@H]1O[C@@H](n2cnc(N)nc2=O)C[C@@H]1O [OR-2003],significant and dose-dependent inhibition of tumor growth,2060,significant demethylation,2840 nM,no influence,40 nM,as strong DNA demethylation as DAC,stronger demethylation,as strongly as DAC,tumor growth inhibition ([3]; highest dose 3.600 mg/kg): strongest effect; Cmax ([6]; comparison among four OR compounds): highest Cmax; WBC count ([8]; highest dose 3.600 mg/kg): affected the WBC count; enzymatic stability in the presence of CDA [11]: stable in the presence of CDA; expression level of SFRP1 and UCHL1 after pulse exposure [15]: twice as high as that induced by DAC
1110 nM,2.14,larger AUCs than that of DAC,0.266 µM·h,0.434 µM·h,0.168 µM·h,≥ 14 h,20** + 16 h,16 h,CC[Si](CC)(CC)OC[C@H]1O[C@@H](n2cnc(N)nc2=O)C[C@@H]1O [OR-2100],significant and dose-dependent inhibition of tumor growth,2041,significant demethylation,1410 nM,no influence,60 nM,as strong DNA demethylation as DAC,stronger demethylation,slightly lower demethylation,adverse effects ([8]; high dose): no adverse effects; luciferase activity after pulse exposure [16]: weaker than that of DAC
